In one data set the test system is NF-κB. The data set is described as follows: Real time PCR NF-κB gene expression in MDA-MB 231 cells. The conditions noted are these: treated MDA-MB 231 cells compared to untreated cells.
A further data set deals with M14. Briefly: NCI anticancer screening, Melanoma M14. The class given is cell-based. To be noted: Homo sapiens; M14, 10 μM; read-out: % Growth Inhibition (GI %). The gist of the method:
(§1)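 DTP standard method; NCI-60 human tumour cell line panel, organic-compound protocol.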

The test system of another data set is HT29. Briefly: NCI anticancer screening, Colon Cancer HT29. The data set is classed as cell-based. The conditions noted are these: Homo sapiens, HT-29; HT29, 10 μM; read-out: % Growth Inhibition (GI %). Summed up:
as §1

The test system of another data set is OVCAR-3. Briefly: NCI anticancer screening, Ovarian Cancer OVCAR-3. The class given is cell-based. To be noted: Homo sapiens; OVCAR-3, 10 μM; read-out: % Growth Inhibition (GI %). Summed up: as §1
A further data set relates to MDA-MB-435. Briefly: NCI anticancer screening, Melanoma MDA-MB-435. The data set is classed as cell-based. To be noted: Homo sapiens; MDA-MB-435, 10 μM; read-out: % Growth Inhibition (GI %). Summed up:
as §1

Another data set concerns NCI-H460. Briefly: NCI anticancer screening, Non-Small Cell Lung Cancer NCI-H460. The class given is cell-based. To be noted: Homo sapiens; NCI-H460, 10 μM; read-out: % Growth Inhibition (GI %). Summed up: as §1
The test system of another data set is UO-31. Briefly: NCI anticancer screening, Renal Cancer UO-31. To be noted: Homo sapiens; UO-31, 10 μM; read-out: % Growth Inhibition (GI %). The class given is cell-based. Summed up:
as §1

The test system of a further data set is NCI-H23. Briefly: NCI anticancer screening, Non-Small Cell Lung Cancer NCI-H23. The data set is classed as cell-based. The conditions noted are these: Homo sapiens; NCI-H23, 10 μM; read-out: % Growth Inhibition (GI %). The gist of the method:
as §1

A further data set deals with SF-268. The data set is described as follows: NCI anticancer screening, CNS Cancer SF-268. The class given is cell-based. To be noted: Homo sapiens; SF-268, 10 μM; read-out: % Growth Inhibition (GI %). Summed up:
as §1

The nature of data set [1]: MTT cytotoxicity to normal human lung fibroblast Wi-38 cell line. The class given is cell-based. To be noted: Wi-38 normal lung fibroblast cells, mean ± SEM, read-out: percentage of Wi-38 viability.
The next data set relates to MDA-MB-468. The data set is described as follows: NCI anticancer screening, Breast Cancer MDA-MB-468. To be noted: Homo sapiens, read-out: % Growth Inhibition (GI %). The class given is cell-based. The gist of the method: as §1
In data set [2] the target is T1, Mdm2 (residues 1–118 T47W) (Homo sapiens, UniProt Q00987, T47W).
T1 construct: Mdm2 (residues 1–118 T47W; 500 nM)
The data set is described as follows: MDM2 binding by microscale thermophoresis (MST). As to the method: MST is a complementary biophysical assay to assess the binding of a small molecule to its receptor. […] Experiments were performed in 50 mM phosphate buffer at pH 7.4 containing 150 mM NaCl, 5 mM DTT, and 5% DMSO. […] Kd values and uncertainties were calculated using the MO Affinity Analysis software.
A general note: Microscale thermophoresis detects binding through changes in fluorescence in a small temperature gradient.

The test system of another data set is BT-549. Briefly: NCI anticancer screening, Breast Cancer BT-549. The data set is classed as cell-based. The conditions noted are these: Homo sapiens; BT-549, 10 μM; read-out: % Growth Inhibition (GI %). Summed up: as §1
In a further data set the test system is SK-OV-3. Briefly: NCI anticancer screening, Ovarian Cancer SK-OV-3. The class given is cell-based. The conditions noted are these: Homo sapiens; SK-OV-3, 10 μM; read-out: % Growth Inhibition (GI %). From the text: (§2) The compound has been processed according to standard method NCI-60 Human Tumor Cell Lines Screen for organic compound at development therapeutic program (DTP). Requests for access to this national resource can be submitted online at: […]

The test system of the next data set is COLO 205. Briefly: NCI anticancer screening, Colon Cancer COLO 205. The conditions noted are these: Homo sapiens; COLO 205, 10 μM; read-out: % Growth Inhibition (GI %). The data set is classed as cell-based.
From the text: as §2

The next data set deals with UACC-257. The data set is described as follows: NCI anticancer screening, Melanoma UACC-257. To be noted: Homo sapiens; UACC-257, 10 μM; read-out: % Growth Inhibition (GI %). The class given is cell-based. Summed up: as §1
The next data set relates to OVCAR-5. The data set is described as follows: NCI anticancer screening, Ovarian Cancer OVCAR-5. The data set is classed as cell-based. To be noted: Homo sapiens; OVCAR-5, 10 μM; read-out: % Growth Inhibition (GI %). The gist of the method: as §1
For the next data set, the system named is KM12. The data set is described as follows: NCI anticancer screening, Colon Cancer KM12. To be noted: Homo sapiens; KM12, 10 μM; read-out: % Growth Inhibition (GI %). The data set is classed as cell-based. Summed up: as §1
The test system of the next data set is RPMI-8226. The data set is described as follows: NCI anticancer screening, Leukemia RPMI-8226. To be noted: Homo sapiens; RPMI-8226, 10 μM; read-out: % Growth Inhibition (GI %). The data set is classed as cell-based. The gist of the method:
as §1

A further data set relates to UACC-62. Briefly: NCI anticancer screening, Melanoma UACC-62. The data set is classed as cell-based. The conditions noted are these: Homo sapiens; UACC-62, 10 μM; read-out: % Growth Inhibition (GI %). The gist of the method:
as §1

The subject of another data set is HCT-15. The data set is described as follows: NCI anticancer screening, Colon Cancer HCT-15. The class given is cell-based. The conditions noted are these: Homo sapiens; HCT-15, 10 μM; read-out: % Growth Inhibition (GI %). The gist of the method: as §1
Another data set deals with MCF7. The data set is described as follows: NCI anticancer screening, Breast Cancer MCF7. The class given is cell-based. To be noted: Homo sapiens; MCF7, 10 μM; read-out: % Growth Inhibition (GI %). The gist of the method: as §1
For another data set, the system named is NCI-H226. Briefly: NCI anticancer screening, Non-Small Cell Lung Cancer NCI-H226. The data set is classed as cell-based. To be noted: Homo sapiens; NCI-H226, 10 μM; read-out: % Growth Inhibition (GI %). Summed up: as §1
For the next data set, the system named is IGROV1. Briefly: NCI anticancer screening, Ovarian Cancer IGROV1. The class given is cell-based. The conditions noted are these: Homo sapiens, IGROV-1; IGROV1, 10 μM; read-out: % Growth Inhibition (GI %). The gist of the method: as §1

For orientation: inhibition means how much of the control response was suppressed. One may read the viability as a per cent measure of how many cells are alive, often set against a control. What is called Kd is a measure of binding affinity in units of concentration. A high value points to a looser complex.

Molecules are shown by their SMILES.

T1 sequence (Q00987 1-118 T47W): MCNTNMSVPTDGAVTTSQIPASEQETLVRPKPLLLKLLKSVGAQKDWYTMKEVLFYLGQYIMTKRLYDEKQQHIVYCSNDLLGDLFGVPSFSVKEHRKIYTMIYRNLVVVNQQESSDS

In the case of `Cc1ccc([C@@H]2C3CSCN3[C@]3(C(=O)Nc4ccccc43)[C@H]2C(=O)c2nc3ccccc3[nH]2)cc1` (mixture of isomers) [Compound 6d, (3S,6′R)-6'-(1H-Benzo [d]imidazole-2-carbonyl)-7'-(p-tolyl)-3′,6′,7′,7a′-tetrahydro-1′H-spiro [indoline-3.5′-pyrrolo [1,2-c]thiazol]-2-one], the “expression level of NF-κB” value in the data set with NF-κB was “downregulating”. Moreover, the inhibition at 10 µM with M14 worked out at 74.7%; with HT29, 69.2%; with OVCAR-3, 89%; in the data set with MDA-MB-435, 70.6%; in the data set on NCI-H460, 84.5%; with UO-31, 54.3%. Also, the inhibition at 10 µM was determined as 91.2% with NCI-H23; 64% with SF-268; 63.5% in the data set with MDA-MB-468; 96.2% in the data set on BT-549; 94.2% in the data set with SK-OV-3; 81.9% in the data set on COLO 205. For the same molecule, the inhibition at 10 µM with UACC-257 stood at 80.6%; with OVCAR-5 it was 95.2%; in the data set with KM12, 75.4%; in the data set on RPMI-8226, 80.3%; in the data set on UACC-62, 78%; in the data set with HCT-15 it was 83.6%. In addition, the inhibition at 10 µM came out at 70.4% in the data set with MCF7, 73.9% in the data set on NCI-H226 and 75% in the data set on IGROV1. Moreover, the viability at 72 h, 5 µM in data set [1] was greater than 81%. In data set [2], this molecule registered a Kd of 17.4 µM.

The record behind these values is paper PMC11033320, “Activation of p53 signaling and regression of breast and prostate carcinoma cells by spirooxindole-benzimidazole small molecules” (Frontiers in Pharmacology, 2024).
